{
  "source": "patent US9987376B2",
  "about": "“Delivery system for delivery of a substance into the oral cavity” (NORINVENT AB, priority 2008, dated 2018)",
  "key": {"[1]": {"details": "rat, in vivo", "procedure": "White/white laboratory standard rats were used for the tests. In test group A, the rats were given scopolamine.\nThe rats were terminated by carbon-dioxide 4 h after centrifugation and the intestinal organs were examined. The presence of scopolamine or citalopram in the rat bodies was detected by spectrophotometrics and digital imaging as described in Goncalves, Diaz and Moses et al."}, "[2]": {"test_system": "headache caused by the red wine", "assay": "relief of red wine headache in voluntary humans", "type": "in vivo, human", "details": "Group A: 40 mg (1/10 of normal oral dose) bonded to a carrier according to the invention", "procedure": "A further test was performed on voluntary humans. The test was performed on a group of 19 persons. Each test person was given 2 L of red wine without gender discrimination. The wine was consumed during 3 hours the evening before testing. The following morning the individuals were divided into two groups A and B, respectively. Group A received 40 mg ( 1/10 of a normal orally administered dose) of ibumetine bonded to a carrier according to the invention. Group B where given an empty membrane with only sugar chains and no active substance. Group A felt a total relief of the headache caused by the red wine within 5 minutes, whereas group B felt no relief at all from the bare membrane with sugar chains. Group B where therefore treated with 400 mg ibumetine by conventional oral delivery. Various degrees of relief were noted after 45 min-1 h. The test procedure is diagrammatically illustrated in FIG. 3."}, "[3]": {"test_system": "motion sickness in White/white laboratory standard rats", "assay": "rat centrifuge motion sickness test", "type": "in vivo", "procedure": "In test group A, the rats were given scopolamine.\nGroup B served as a control and was treated with uncoupled scopolamine and a starch matrix carrier without sugar chains.\nThe membrane size was 1×1 mm made out of starch. To this the labelled sugar chains were coupled and one membrane was put under the upper lip of each rat.\nThree equally calibrated centrifuges were used in the test, one for each group of rats A, B, C. Each centrifuge was placed in a box having an entrance/exit through which the rats could move freely between their cage and the centrifuge box. The rats were first allowed to find their way into the centrifuge box before they were lifted up and placed in the centrifuge.\nThe rats were subsequently spun in the centrifuges at 3 G during 30 seconds.\nAfter centrifugation, the ability of each group A, B, C to localize the exit in the centrifuge box and to return to the cage as well as general steadiness were observed."}, "[4]": {"details": "White/white laboratory standard, 4 h"}},
  "note": "Where two headings read alike, the source gives them in different places.",
  "data": [
    {"smiles": "CN(C)CCCC1(c2ccc(F)cc2)OCc2cc(C#N)ccc21", "note": "(stereo not shown) [citalopram]", "values": [
      {"measurement": "active substance in kidney or liver", "setting": "[1]; [4]", "value": "over 75%"},
      {"measurement": "active substance in the brain", "setting": "[1]; [4]", "value": "less than 4%"},
      {"measurement": "active substance in the brain", "setting": "[1]; 4 h", "value": 99, "unit": "%"},
      {"measurement": "active substance in the kidneys", "setting": "[1]; 4 h", "value": "less than 0.1%"},
      {"measurement": "active substance in the liver", "setting": "[1]; 4 h", "value": "less than 0.2%"}
    ]},
    {"smiles": "CC(C)Cc1ccc(C(C)C(=O)O)cc1", "note": "(stereo not shown) [ibumetine]", "values": [
      {"measurement": "time to total relief of the headache", "setting": "[2]", "value": "≤ 5", "unit": "min"}
    ]},
    {"smiles": "CN1[C@@H]2C[C@@H](OC(=O)[C@H](CO)c3ccccc3)C[C@H]1[C@@H]1O[C@@H]12", "note": "[scopolamine]", "values": [
      {"measurement": "behaviour / signs of motion sickness after centrifugation", "setting": "[3]; Group A: 1/10 of a normal dose bound by sugar chains to starch matrix, under upper lip, 3 G, 30 seconds", "value": "no change in normal behaviour"},
      {"measurement": "ability to localize the exit in the centrifuge box", "setting": "[3]; Group A: 1/10 of a normal dose bound by sugar chains to starch matrix, 3 G, 30 seconds", "value": "managed to directly locate the exit"},
      {"measurement": "behaviour / signs of motion sickness after centrifugation", "setting": "[3]; Group B: same amount of uncoupled substance with starch matrix without sugar chains, 3 G, 30 seconds", "value": "clear signs of motion sickness"},
      {"measurement": "ability to localize the exit in the centrifuge box", "setting": "[3]; Group B: uncoupled substance, starch matrix without sugar chains, test period of 1 h", "value": "could not find the exit"},
      {"measurement": "active substance in kidney or liver", "setting": "[1]; White/white laboratory standard", "value": "over 75%"},
      {"measurement": "active substance in the kidneys", "setting": "[1]", "value": "less than 0.1%"},
      {"measurement": "active substance in the liver", "setting": "[1]", "value": "less than 0.2%"}
    ]}
  ]
}
